These results are taken from patent publication US7371829B2, “Haptens, immunogens, antibodies and conjugates to ketamine and its metabolites” (Randox Laboratories Limited, priority 2002, dated 2008).

The subject of test [1] is antiserum raised to immunogen C (hapten C-BSA), IgG fraction. Briefly: Competitive ELISA microtiter plate assay for ketamine and norketamine (conjugate A, hapten A-HRP, as detection reagent). Type of test: binding, sheep. The note with it: for IC50, CR = concentration of potential cross-reactant that causes 50% displacement of signal: potential cross-reactants, standards 0-500 ng/ml. Here is the method: An aqueous solution of the immunogen prepared in Example 10 was formulated with Freund's Complete Adjuvant (FCA) to form an emulsion consisting of 4 mg/ml immunogen in 50% (v/v) FCA. Three sheep were immunised with this emulsion (1° immunisation), 0.25 ml being subcutaneously injected at each of four sites in the flank of each animal. The next immunisation (boost 1) contained 2 mg/ml immunogen and subsequent immunizations (boosts 2 to 11) contained 1 mg/ml immunogen. All boosts were emulsified in 50% (v/v) Freund's Incomplete Adjuvant (FIA) and were administered in the same manner as the 1° immunisation, at monthly intervals for 1 year. Blood sampling took place 7 to 14 days after each boost. Each sample was processed to produce antiserum, which was further purified by caprylic acid and ammonium sulfate precipitation to yield an immunoglobulin G (IgG) fraction. The IgG fraction was evaluated by competitive ELISA microtiter plate assay, as described in Example 16 below.
The wells of an enhanced binding 96 well polystyrene microtiter plate were coated with the IgG fraction of the antiserum raised to immunogen C (hapten C-BSA) (Example 10), diluted in 10 mM Tris, pH 8.5 (125 μl/well). The appropriate antibody coating dilution was determined using standard ELISA checkerboard techniques. The plate was incubated for 2 hours at 37° C., washed 4 times with Tris buffered saline containing Tween 20 (TBST) and tapped dry. Standard solutions of ketamine and norketamine were prepared in TBST at 0, 0.1, 0.5, 1, 5, 25, 100 and 500 ng/ml and 50 μl of each was added to the appropriate wells (FIG. 4). 75 μl of conjugate A (hapten A-HRP) (Example 11), diluted in Tris buffer (pH 7.2) containing EDTA, D-mannitol, sucrose, thimerosal and BSA, was added to each of the wells, as shown in FIG. 4. The appropriate dilution of conjugate was also determined using standard ELISA checkerboard techniques. The plate was incubated at 37° C. for 2 hours. Excess unbound conjugate was removed by washing 6 times over a 10 minute period with TBST.
125 μl of tetramethylbenzidine (TMB) substrate solution was added to each well of the plate that was then incubated for 15 to 20 minutes in the dark at room temperature. The reaction was terminated by addition of 125 μl 0.2M H2SO4 to each well. The absorbance was then measured at 450 nm using a microtiter plate reader.
In order to determine the specificity of the competitive ELISA for ketamine and norketamine, standard solutions were prepared in TBST at 0, 0.1, 0.5, 1, 5, 25, 100 and 500 ng/ml. Employing each series of standards in the ketamine competitive ELISA, calibration curves were generated and these were used to determine the cross-reactivity of the immunoassay with these substances. The results of this study are presented in Table 2, cross-reactivity of potential cross-reactants phencyclidine and dextromethorphan being calculated according to the following formula: % CR=IC50, Ketamine/IC50, CR×100
Where %CR is the percentage cross-reactivity, IC50, Ketamine is the concentration of ketamine that causes 50% displacement of signal and IC50, CR is the concentration of potential cross-reactant that causes 50% displacement of signal.
For orientation: ELISA stands for enzyme-linked immunosorbent assay.

Test [2] concerns Neogen kit antibodies developed against a ketamine hapten. As to conditions: Neogen ELISA kit; cited from earlier work.
In test [3] the test system is antibodies against five epitopes of phencyclidine (PCP)-like molecules. The note with it: antibodies to PCP-like haptens conjugated to BSA; Table 2, page 475 of Owens et al; cited from earlier work.
For test [4], the system named is antibodies to phenylcyclohexylamine derivative immunogens. As to conditions: Abbott immunoassay, Table 3(c) at page 18; cited from earlier work.
Test [5] has as its system antibodies to PCP and other arylcyclohexylamines. The note with it: as indicated by high IC50 values, Table 1, page 667 of Owens et al; cited from earlier work.
The mark [6] stands for this setting: antiserum to immunogen C, conjugate A.
[7] abbreviates: standard concentration 0.1 ng/ml.
[8] abbreviates: standard concentration 0.5 ng/ml.
[9] abbreviates: standard concentration 25 ng/ml.
[10] abbreviates: standard concentration 100 ng/ml.
The mark [11] stands for this setting: standard concentration 500 ng/ml.
[12] abbreviates: % CR=IC50, Ketamine/IC50, CR×100.

Consider `CNC1(c2ccccc2Cl)CCCCC1=O` (racemic) [Ketamine, (±)-2-(o-chlorophenyl)-2-(methylamino) cyclohexanone], for which the “% CR = percentage cross-reactivity based on specificity to ketamine” value (from here on “% CR = percentage cross-reactivity based”) in test [1] (setting [6]) is recorded as 100.0%. For the same compound, the “IC50 = standard concentration which produces 50% B/B0” value in test [1] (setting [6]) was 0.0029 µg/mL. In addition, the “% B/B0” value is recorded as 92.1% in test [1] (setting [7]); 82.8% in test [1] (setting [8]); 67.9% in test [1] (standard concentration 1 ng/ml); 42.6% in test [1] (standard concentration 5 ng/ml); 25.0% in test [1] (setting [9]); 18.4% in test [1] (setting [10]). For the same compound, in test [1] (setting [11]), the “% B/B0” value was 11.6%. Further, the cross-reactivity in test [2] is listed as 100%; in test [3], < 0.6%; in test [4], “does not cross-react significantly”; in test [5] it was “low levels of cross-reactivity”.

`c1ccc(C2(N3CCCCC3)CCCCC2)cc1` [Phencyclidine]: the “% CR = percentage cross-reactivity based” value in test [1] (setting [12]) is recorded as <0.58%. The “IC50, CR = concentration of potential cross-reactant that causes 50% displacement of signal” value in test [1] is >0.5 µg/mL.

Regarding `NC1(c2ccccc2Cl)CCCCC1=O` (stereo not drawn) [Norketamine, [2-amino-2-(o-chlorophenyl)]cyclohexanone], the “% CR = percentage cross-reactivity based” value in test [1] (setting [6]) is reported as 138.1%. Besides, the “IC50 = standard concentration which produces 50% B/B0” value in test [1] (setting [6]) was found to be 0.0021 µg/mL. The “% B/B0” value in test [1] (setting [7]) was 86.9%; in test [1] (setting [8]) it was 66.8%; in test [1] (standard concentration 1 ng/ml), 64.5%; in test [1] (standard concentration 5 ng/ml), 45.3%; in test [1] (setting [9]), 22.7%; in test [1] (setting [10]), 15.1%. For the same compound, the “% B/B0” value in test [1] (setting [11]) came out at 10.5%. In test [2], the cross-reactivity is given as 4.6%.

In the case of `COc1ccc2c(c1)[C@]13CCCC[C@@H]1[C@H](C2)N(C)CC3` [Dextromethorphan], the “% CR = percentage cross-reactivity based” value in test [1] (setting [12]) was <0.58%. The “IC50, CR = concentration of potential cross-reactant that causes 50% displacement of signal” value in test [1] is >0.5 µg/mL.
